Tests used:
[1] = free drug; cited from earlier work
Caspase-3/7 = Caspase-3/7 activity assay; type: cell-based; conditions: for caspase activity (confocal, ImageJ): control 100%
Procedure: For flow cytometry, 1×10^5lls per sample were incubated with Pheno Vue® 505 caspase-3/7 stain in fresh medium for 30 minutes, washed with PBS, and analyzed on an Attune NxT® Flow Cytometer using BL-1 (530/30 nm) for caspase activation detection. For confocal microscopy, 2×10^5 cells per well were seeded on poly-L-lysine-coated coverslips, stained with caspase-3/7 reagent, fixed in 4% PFA, permeabilized with 0.1% Triton® X-100, and counterstained with DAPI. Coverslips were mounted with Vectashield Plus® antifade medium and imaged using a Leica SP-5 Confocal Microscope (20× water immersion lens). The experiment was conducted in triplicate (n=3), and statistical significance was determined using GraphPad Prism® with a two-tailed t-test.

Water solubility = type: physicochemical; conditions: Rosi and its 2DG-D conjugate
EOC 20 microglial cells = experiment: MTT cytocompatibility, EOC 20; type: cell-based; conditions: all tested concentrations, 24 h
Procedure: (§1) Cytocompatibility studies were carried out using MTT assay as described in our previous work. […] After this, all the treated cells were incubated with MTT for 3 h till the purple-colored formazan crystals appeared. For dissolving these crystals, cell culture grade DMSO was added to each of the wells and incubated for 15 min. Finally, the absorbance was recorded at 570 nm using Synergy H1 hybrid multi-mode microplate. The percentage cytocompatibility was calculated using equation 2. All the measurements were done in triplicates with proper controls.

PPARγ = PPARγ expression by flow cytometry and immunofluorescence; type: cell-based; conditions: for PPARγ expression (confocal, ImageJ): LPS:H2O2 group 1-fold
Procedure: For flow cytometry, 1×10^5 cells per sample were fixed in 4% PFA, permeabilized with 0.2% Triton® X-100, blocked with 3% BSA, and incubated overnight at 4° C. with an anti-PPARγ antibody.
For immunofluorescence, 5×10^4 cells per well were grown on poly-L-lysine-coated coverslips, treated, washed, and blocked with 3% BSA, followed by overnight incubation with an anti-PPARγ antibody at 4° C. on a 3D shaker. […] Imaging was performed using a […] SP5 Confocal Microscope (20× water immersion lens). The experiment was conducted in triplicate (n=3), and statistical significance was determined using GraphPad Prism® with a two-tailed t-test.

TNF-α = experiment: Quantitative TNF-α ELISA; type: cell-based; conditions: LPS:H2O2 induced CATH.a, control 1-fold
Procedure: For determining the effect of 2DG-D-Rosi conjugates on the neuro-inflammation under in vitro conditions, the expression levels of tumor necrosis factor-alpha (TNF-α) and interleukin-6 (IL-6) were analyzed using an enzyme-linked immunosorbent assay (ELISA). The protocol was adapted from previously published literature with slight modifications. Briefly, CATH.a neurons (5×10^4 cells/well) were seeded into 96-well plates and cultured overnight. […] Following the treatment, the consumed culture media was collected and centrifuged at 12,000×g for 10 minutes to remove cellular debris. A 50 μL aliquot of the supernatant was added to ELISA plates pre-coated with primary antibodies for TNF-α and IL-6, respectively, and incubated for approximately 2 h. The cytokine concentrations (pg/mL) were determined using standard calibration curves provided in the ELISA kit, adhering to the manufacturer's instructions. All experiments were performed in triplicates, with appropriate controls.

CATH.a cells [2] = experiment: Annexin V/propidium iodide assay; type: cell-based; conditions: 250 μg/mL
Procedure: Apoptosis/necrosis was assessed in CATH.a cells using the FITC ApoScreen® Annexin V Apoptosis Kit. Cells were pre-treated with LPS (1 μg/mL) and H2O2 (100 μM) for 6 hours to mimic TBI-like conditions, followed by 2DG-D-Rosi treatment for 24 hours at 37° C., 5% CO2. After incubation, cells were harvested, washed twice with cold PBS, and resuspended in 100 μL of 1× Annexin Binding Buffer. Staining was performed with 10 μL Annexin V-FITC and 10 μL Propidium Iodide (PI) for 15 minutes at 2-8° C. in the dark, followed by dilution with 380 μL 1× Annexin Binding Buffer. Samples were analyzed on an Attune NxT® Flow Cytometer using BL-1 (530/30 nm) for Annexin V-FITC and YL-1 (585/16 nm) for PI. Controls included unstained, Annexin V-only, and PI-only samples. Density plots were generated to classify viable, early apoptotic, necrotic, and late apoptotic/necrotic cells. The experiment was performed in triplicate (n=3), and data was analyzed using GraphPad Prism® with statistical significance determined by a two-tailed t-test.

CATH.a neurons = experiment: MTT cytocompatibility, CATH.a; type: cell-based; conditions: all tested concentrations, 24 h
Procedure: as §1

CATH.a cells [3] = experiment: JC-1 mitochondrial membrane potential (MMP) assay; type: cell-based; conditions: for MFI of J-monomers (confocal): control ~141
Procedure: The JC-1 Mitochondrial Membrane Potential (MMP) Assay was used to assess 2DG-D-Rosi effects on CATH.a cells under TBI-like conditions via flow cytometry and confocal microscopy. Cells were pre-treated with LPS (1 μg/mL) and H2O2 (100 μM), followed by 2DG-D-Rosi treatment for 24 hours at 37° C., 5% CO2. After incubation, cells were stained with 2 μM JC-1 dye for 20 minutes at 37° C. in the dark. For flow cytometry, cells were analyzed on an Attune NxT® Flow Cytometer, with JC-1 monomers (green, depolarized mitochondria) detected in BL-1 (530/30 nm) and J-aggregates (red, polarized mitochondria) in YL-1 (585/16 nm). For confocal microscopy, cells were seeded on poly-L-lysine-coated coverslips, stained with JC-1, counterstained with DAPI, and imaged using a Leica SP-5 Confocal Microscope (20× water immersion magnification). The experiment was conducted in triplicate (n=3), and data were analyzed using GraphPad Prism® with statistical significance determined by a two-tailed t-test.

IL-6 = experiment: Quantitative IL-6 ELISA; type: cell-based; conditions: LPS:H2O2 induced CATH.a, control ~1-fold
Procedure: For determining the effect of 2DG-D-Rosi conjugates on the neuro-inflammation under in vitro conditions, the expression levels of tumor necrosis factor-alpha (TNF-α) and interleukin-6 (IL-6) were analyzed using an enzyme-linked immunosorbent assay (ELISA). The protocol was adapted from previously published literature with slight modifications. Briefly, CATH.a neurons (5×10^4 cells/well) were seeded into 96-well plates and cultured overnight. The cells were pre-treated with lipopolysaccharide (LPS; 1 μg/mL) and hydrogen peroxide (H2O2, 100 μM) and then incubated with 2DG-D-Rosi conjugates at varying concentrations (50, 100, and 250 μg/mL) for 24 hours at 37° C. in a CO2 incubator. Following the treatment, the consumed culture media was collected and centrifuged at 12,000×g for 10 minutes to remove cellular debris. A 50 μL aliquot of the supernatant was added to ELISA plates pre-coated with primary antibodies for TNF-α and IL-6, respectively, and incubated for approximately 2 h. The cytokine concentrations (pg/mL) were determined using standard calibration curves provided in the ELISA kit, adhering to the manufacturer's instructions. All experiments were performed in triplicates, with appropriate controls.

[4] = tested on: human umbilical vein endothelial cells (HUVECs); experiment: MTT cytocompatibility, HUVEC; type: cell-based; conditions: all tested concentrations, 24 h
Procedure: as §1

## CCc1ccc(CCOc2ccc(CC3SC(=O)NC3=O)cc2)nc1 (stereo not drawn) [Pio, pioglitazone]
[1]
  water solubility of free Pio: 4.42 µg/mL

## CN(CCOc1ccc(CC2SC(=O)NC2=O)cc1)c1ccccn1 (stereo not drawn) [Rosi, rosiglitazone]
Caspase-3/7; 50 μg/mL
  caspase activity (confocal, ImageJ): ~75%
Caspase-3/7; 100 μg/mL
  caspase activity (confocal, ImageJ): ~63%
Caspase-3/7; 250 μg/mL
  caspase activity (confocal, ImageJ): ~68%
Caspase-3/7; free Rosi vs LPS:H2O2, flow cytometry
  lowering of caspase activity: ~70%
Water solubility
  solubility in water: sparingly soluble
EOC 20 microglial cells
  cytotoxicity (MTT): No toxic effects
PPARγ; 50 μg/mL
  PPARγ expression (confocal, ImageJ): 1.82 fold
PPARγ; 100 μg/mL
  PPARγ expression (confocal, ImageJ): 1.79 fold
PPARγ; 250 μg/mL
  PPARγ expression (confocal, ImageJ): 1.9 fold
PPARγ; LPS+H2O2 ~206, untreated ~112
  PPARγ expression MFI (flow cytometry): ~556
TNF-α; 100 μg/mL
  TNF-α levels: 0.91 fold
TNF-α; 250 μg/mL
  TNF-α levels: 0.85 fold
TNF-α; 500 μg/mL
  TNF-α levels: 0.77 fold
CATH.a cells [2]; LPS:H2O2 treated CATH.a (~31.07%)
  necrosis: ~1.67%
CATH.a cells [2]; LPS:H2O2 treated CATH.a
  apoptosis: ~54.6%
CATH.a neurons
  cytotoxicity (MTT): No toxic effects
CATH.a cells [3]; 50 μg/mL
  MFI of J-monomers (confocal): ~89
CATH.a cells [3]; 100 μg/mL
  MFI of J-monomers (confocal): 74
CATH.a cells [3]; 250 μg/mL, LPS:H2O2 group ~2.7
  MFI of J-aggregates (red fluorescence): ~78.1
CATH.a cells [3]; 250 μg/mL
  MFI of J-monomers (confocal): 72
CATH.a cells [3]; LPS+H2O2 ~0.24%, 2DG-D and Rosi at 250
  healthy mitochondria, flow cytometry: ~21.54%
CATH.a cells [3]; LPS+H2O2 ~95.13%, 2DG-D and Rosi at 250
  depolarized mitochondria (J-Mon+/J-Agg-), flow cytometry: ~69.73%
IL-6; 50 μg/mL
  IL-6 levels: 0.88 fold
IL-6; 100 μg/mL
  IL-6 levels: 0.86 fold
IL-6; 250 μg/mL
  IL-6 levels: 0.67 fold
[4]
  cytotoxicity (MTT): No toxic effects

Reference: patent US20250352653A1, “NEURON TARGETED 2-DEOXYGLUCOSE DENDRIMER FOR IMAGING AND TREATMENT OF NEUROLOGICAL DISEASES” (Washington State University, priority 2024, published 2025)
